Measured values reported in patent US4999374A, “Veterinary treatment” (priority 1987, dated 1991).
≈ marks a conversion by molar mass, not a printed value. Where “and” joins values, the source holds several entries; their conditions need not be identical. Equal values may be shown once. Read-outs that look alike come from different tables or passages of the source.

Legend:
T. hyodysenteriae [1] = test: MIC of M139603 against thirteen T. hyodysenteriae isolates vs salinomycin and dimetridazole (Example 1, Table 1); type: cell-based, Treponema hyodysenteriae; conditions: for MIC: Brachyspira hyodysenteriae
Protocol: The minimum inhibitory concentration of M139603 was tested in parallel with dimetridazole (May & Baker) and the growth-promoting polyether antibiotic salinomycin (Hoechst) against thirteen strains of T. hyodysenteriae.

T. hyodysenteriae [2] = test: Comparative efficacy of M139603 and lasalocid in experimentally infected mice (Example 4, Table 4); type: in vivo, mice (strain MF-1); conditions: 20 ppm feed
Excerpt: The infection leads to varying degrees of caecitis, the lesions of which are apparent in animals killed on or about the sixth day post-infection. Caecal specimens examined by bacteriological culture techniques applicable for enumeration of organisms reveal the presence of high populations of T.hyodysenteriae. This disease-model was used in experiments to compare the efficacy of M139603 with that of salinomycin, lasalocid and monensin in suppressing the infection.
In this study, the efficacy of M139603 was tested at 25 ppm feed and that of monensin (Eli Lilly) at 50 or 100 ppm. Groups of infected mice, five per group, were offered the drugs in the feed on five continuous days before killing. Caecal materials were subjected to bacteriological examination to enumerate the populations of viable treponemes per gram of material. […] The group mean in respect of the unmedicated groups was 7.9 cfu/g.
In this study, the efficacy of M139603 was tested at 20 ppm feed and that of lasalocid (Hoffman la Roche) at 20, 40 and 80 ppm. The test procedures were similar to those above except for the size of the inoculum of T.hyodysenteriae (1.2×10^7 cfu) used in infecting each mouse. […] The mean (log10) counts of viable treponemes found in the caecal contents of the various groups were: 2.5 cfu/g caecum (139603 at 20 ppm), 7.35 cfu (lasalocid at 20 ppm), 7.45 cfu (lasalocid at 40 ppm), 3.81 cfu (lasalocid at 80 ppm) and 8.50 cfu (unmedicated control).

[3] = test system: T. hyodysenteriae strain "P18a"; test: Agar-dilution M.I.C. test of M139603 and analogues (Example 8, Table 8); type: cell-based, Treponema hyodysenteriae; conditions: Brachyspira hyodysenteriae, Isosensitest agar with 5% sheep-blood, anaerobic, 39° C., 48-72 hours
Protocol: T. hyodysenteriae strain "P18a" was used in both in vitro and in vivo tests as above.
Minimum inhibitory concentration test: An agar-dilution M.I.C. test procedure was applied in the study. The susceptibility of the bacterial strain was tested against a range of dilutions (0.3 mg; 0.1 mg; 0.03 mg; 0.01 mg and 0.003 mg/l medium) of each compound incorporated in plates of Isosensitest agar (Oxoid CM471) with 5% added sheep-blood. The plates, `spot-inoculated` (Steer's type multipoint inoculator) with a standard culture-suspension of the test strain, were incubated anaerobically at 39° C. for 48-72 hours before reading the results. The M.I.C. of each compound was read as the lowest concentration yielding no growth (no haemolysis) or a hazy growth (faint haemolysis) on the site of the spot-inoculation.

[4] = test system: T. hyodysenteriae (strain "P18a"); test: Efficacy of M139603 in pigs, natural infection (Example 6, Table 6); type: in vivo; conditions: for Mortality (+ culls): 38 days, 6 pigs; for Number diarrhoea/dysentery days / Percent diarrhoea/dysentery days: pi 1 to 38; for Average weight at end: start 10.95 kg
Protocol: In this studY two groups (Gp.1 and Gp.2) of pigs, six per group, were experimentally infected with a pathogenic strain of T. hyodysenteriae (P18a, IRAD(Institute for Animal Health), Compton, Berks, U.K.) by oro-gastric inoculation of 50 ml of a culture suspension (1×10^7cfu/ml) of the organism into each animal. From post-infection day (PID) to PID 35 the animals in Gp. 1 were offered ad lib a feed comprising "Kwikwean" meal (Rank, Hovis, McDougall Research Ltd; containing no antibiotics) incorporated with M139603 at 25 ppm. Gp.2 remained on unmedicated feed throughout the trial. Drug efficacy was measured primarily on the basis of the number of diarrhoea or dysentery days in relation to pig-days within a group and on the average daily weight gain per pig, in each group over the period of the trial. The daily gain was calculated by dividing group gain at end of trial (PID 35) by the total number of pig-days from PID 1 to PID 35. […] In the experiment the pigs were exposed to high infective doses of the organism a day before the introduction of the drug. Under normal circumstances preventive dose-regimes are applied on animals at risk and not on those already infected.
In this study, eighteen pigs were allocated to three equal groups (Gp.1-3). Feed incorporated with the drug at 25 or 15 ppm was offered to Gp.1 and 2, respectively, on thirty-eight consecutive days commencing six hours pre-infection. Gp.3 remained on unmedicated feed throughout the trial. The pigs were infected with T. hyodysenteriae (strain "P18a") using methods and materials similar to those applied in Example 5. However, seven days following this exposure (post-infection day 7), over a period of seven consecutive days, the pigs in Gp. 1 and 2 were allowed to co-mingle for about two hours each day with some dysenteric "seeder pigs" in a nearby pen. Drug efficacy, as in Example 6, was assessed primarily on the basis of the total number of diarrhoea/dysentery days per group and on the basis of average daily weight gain per pig per group. The results are indicative of the good efficacy of M139603 even at a level as low as 15 ppm feed in preventing swine dysentery. At this dose-level, the daily drug-intake is unlikely to be more than 0.9 mg/kg/body-weight, if daily feed is calculated at 6% of a pig's body-weight.

CO[C@@H](C)[C@H]1C[C@H](C)[C@H]([C@@H](C)/C=C/[C@@H]2CC[C@@H](C)[C@H](/C(=C/[C@H]3CCC[C@@H](C)[C@@H]3[C@H](C)C(=O)C3=C(O)COC3=O)CO)O2)O1 [Analogue M139603, tetronasin]
MIC (T. hyodysenteriae [1]; isolate B78, read-out: MIC): 0.5 µg/mL
MIC (T. hyodysenteriae [1]; isolate S82/6, read-out: MIC): 0.2 µg/mL
MIC (T. hyodysenteriae [1]; isolate S82/7, read-out: MIC): 0.2 µg/mL
MIC (T. hyodysenteriae [1]; isolate S83/1, read-out: MIC): < 0.1 µg/mL
MIC (T. hyodysenteriae [1]; isolate S83/2, read-out: MIC): 0.5 µg/mL
MIC (T. hyodysenteriae [1]; isolate S83/5, read-out: MIC): < 0.1 µg/mL
MIC (T. hyodysenteriae [1]; isolate S85/1, read-out: MIC): 0.2 µg/mL
MIC (T. hyodysenteriae [1]; isolate S85/2, read-out: MIC): 0.2 µg/mL
MIC (T. hyodysenteriae [1]; isolate S85/3, read-out: MIC): 0.2 µg/mL
MIC (T. hyodysenteriae [1]; isolate S85/8, read-out: MIC): 0.2 µg/mL
MIC (T. hyodysenteriae [1]; isolate S85/9, read-out: MIC): < 0.1 µg/mL
MIC (T. hyodysenteriae [1]; isolate S86/1, read-out: MIC): < 0.1 µg/mL
MIC (T. hyodysenteriae [1]; isolate S86/2, read-out: MIC): 0.2 µg/mL
MIC (T. hyodysenteriae [1]; mean of 13 strains (table), read-out: Mean MIC): 0.215 µg/mL
MIC compared with salinomycin (statistical analysis) (T. hyodysenteriae [1]; thirteen strains): significantly (p<0.001) lower MIC
Complete suppression of infection (T. hyodysenteriae [2]): completely suppressed the infection in two mice
Efficacy compared with lasalocid at 80 ppm (T. hyodysenteriae [2]): greater than that of lasalocid at 80 ppm
Mean (log10) viable treponemes per gram caecal contents (T. hyodysenteriae [2]; 5 days, group mean (table)): 1.62 log10 per gram
Viable treponemes per gram caecal contents (T. hyodysenteriae [2]; 5 days, individual mice): 0 per gram and 4.3 × 10^3 per gram and 3.0 × 10^2 per gram and 1.0 × 10^2 per gram
Mean (log10) count of viable treponemes in caecal contents (T. hyodysenteriae [2]; log10): 2.5 cfu/g caecum
Reduction of T. hyodysenteriae populations (T. hyodysenteriae [2]; other three mice): markedly reduced
MIC [3]: 0.01 µg/mL (≈ 0.0166 µM)
Average daily weight-gain ([4]; 15 ppm feed): 0.72 kg
Efficacy in preventing swine dysentery ([4]; 15 ppm feed): good efficacy
Mortality (+ culls) ([4]; 15 ppm feed): 0
Number diarrhoea/dysentery days ([4]; 15 ppm feed): 0 days
Percent diarrhoea/dysentery days ([4]; 15 ppm feed): 0%
Average weight at end ([4]; 15 ppm feed): 41.0 kg
Group weight at end ([4]; 15 ppm feed, start 65.5 kg): 246.5 kg
Animals developing a transient dysentery ([4]; 25 ppm feed): one of the six animals
Average daily weight-gain ([4]; 25 ppm feed): 0.72 kg
Mortality (+ culls) ([4]; 25 ppm feed): 0
Number diarrhoea/dysentery days ([4]; 25 ppm feed): 14 days
Percent diarrhoea/dysentery days ([4]; 25 ppm feed): 6.1%
Average weight at end ([4]; 25 ppm feed): 41.0 kg
Group weight at end ([4]; 25 ppm feed, start 65.7 kg): 246.5 kg
